Test results taken from patent publication US20150366839A1, “Schisantherin A for the treatment of neurodegenerative diseases” (priority 2014, published 2015).
Read-outs that look alike come from different tables or passages of the source.

Columns and labels:
[1] = test system: TH-positive neurons in the SNpc; type: in vivo, C57BL/6 mice; details: for neuroprotective effect on TH-positive neurons: then MPTP
Method: Male C57BL/6 mice (20±2 g body weight, 6-8 weeks of age) were purchased from the Laboratory Animal Center of Guangdong Province and were fed six animals per cage, under a 12 h light/dark cycle with ad libitum access to food and water. Mice were handled daily and allowed 3 days to acclimate before each treatment. Six groups of mice (n=7/group, total 42 mice) were assigned for the neuroprotective study in vivo. SchiA at different concentrations (30, 100 or 300 mg/kg/day), positive control drug (Selegiline, 10 mg/kg/day) or vehicle (Tween-80/ml propylene glycol/alcohol/5% PVA, 1:1:1:17, v/v/v/v) were administered by intragastric gavage (i.g.) daily for 14 days. Then mice were injected by intraperitoneal (i.p.) with 30 mg/kg MPTP hydrochloride (Sigma-Aldrich) or physiological saline daily on days 15-19 (total 5 days). In order to allow for the full conversion of MPTP to its active metabolite MPP^+, a further 3 days of resting period followed (Levites, Weinreb et al. 2001). All animal experiments were conducted according to the ethical guidelines for animal experiment of Jinan University. The experimental protocols were approved by the Ethics Committee for Animal Experiments of Jinan University (permit number 20110810).
Three days after MPTP treatment, animals were anesthetized by i.p. administration of […] chloral hydrate (10% (w/v) dissolved in distilled water) and perfused intracardially with 100 mL PBS (0.1 mmol/L, pH 7.4) followed by 150 mL 4% paraformaldehyde (PFA) in PBS. After intracardial perfusion, brains were collected and post-fixed in 4% PFA for another 24 h at 4° C., embedded in paraffin, and cut into 6 μm coronal sections encompassing the entire SNpc. As the decrease of TH-positive neurons in response to MPTP treatment is the most prominent at medial levels of the SNpc (Hayley, Crocker et al. 2004), the inventors selected the sections from the area encompassed between −3.08 and −3.20 from bregma to perform immunohistochemisty. Immunohistochemistry of brain tissues was performed as previously described (He, Yamauchi et al. 2008; Yokoyama, Takagi et al. 2008) with minor modifications. Sections were deparaffinized in xylene and rehydrated in a graded ethanol series. […] Non-specific protein binding was blocked with 10% bovine serum in PBS (0.01 M, pH 7.4). Between each treatment, the slides were washed at least three times with deionized water for 5 minutes. […] The results were analyzed by counting the numbers of TH-positive cells at ×10 magnifications on a stereomicroscope (BX51, Olympus Corp. Japan). TH-positive cells in 6 position-matched sections of each mouse were counted manually by operator who was blinded to the drug treatment. […]

Bax and Bcl-2 = Bax and Bcl-2 expression in MPP+-treated cells, Western blot; type: cell-based, Human
Method: After treatment, SH-SY5Y cells were washed three times with PBS and then lysis with RIPA lysis buffer containing 1% PMSF and 1% Protease Inhibitor Cocktail and incubated for 30 min on ice. Cell lysates were centrifuged at 12,500 g for 20 min at 4° C. The supernatant was separated and the amount of protein was determined using the BCA protein assay kit (Thermo Scientific Pierce, USA). Protein samples (30 μg) were separated by SDS-PAGE (10% (w/v)) polyacrylamide gel and then transferred to a polyvinylidene difluoride (PVDF) membrane (Bio-Rad, Hercules, Calif.). Subsequently, the membrane was blocked with 5% (v/v) non-fat milk in PBST (PBS containing 0.1% Tween 20) for 1 h at room temperature. The blots were incubated overnight at 4° C. with primary antibodies. After three washes with PBST, the membranes were incubated with horseradish peroxidase-conjugated secondary antibodies (1:2000) in PBST with 5% non-fat milk for 1 h at room temperature. After repeated washes, proteins were visualized with an ECL advanced western blotting detection kit. Photographs of protein bands were taken by a Molecular Imager ChemiDoc XRS (Bio-Rad, Hercules, Calif.). Quantitative assessment of protein bands was done with Gel Doc™ XRS equipped with Quantity One software.
To investigate whether SchiA has any effect on the expression of Bax and Bcl-2 proteins in MPP^+-induced SH-SY5Y cells, the expression levels of Bax and Bcl-2 were determined by Western blot analysis. SH-SY5Y cells were pretreated with 60 μM SchiA for 12 h before incubating with 2 mM MPP for 36 h. The expression of Bax or Bcl-2 in cell lysates was determined by Western blot analysis. […] In this study, β-actin was shown as an internal control. In FIGS. 15A-B, the Bax/Bcl-2 ratio are expressed as a percentage of that of the control group. ###P<0.005 versus control group; ***P<0.005 versus MPP group.

zebrafish larvae = details: 2.5-10 μM with 10 μM MPTP, 4 days, 10 min session
Method: The wild type zebrafish was used for this study. Embryos were collected after natural spawning, staged according to standard criteria and raised synchronously at 28.5° C. in embryo medium (13.7 mM NaCl, 540 μM KCl, pH 7.4, 25 μM Na2HPO4, 44 μM KH2PO4, 300 μM CaCl2, 100 μM MgSO4, 420 μM NaHCO3, pH 7.4). Zebrafish were staged by days post fertilization (dpf) according to criteria. […] Drugs (i.e. the five lignans) were dissolved in DMSO and directly added into the zebrafish embryo medium to treat fish. […] An equal concentration of DMSO in embryo medium was used as vehicle control in each experiment.
Then the total distance of movement was defined as the distance (in cm) was recorded using a 96-well plate filled with 200 μL embryo medium in a 10 minutes long session. Zebrafish were allowed to accommodate to the environment of the system for 1 hour before the start of the data acquisition.
In this study, Zebrafish larvae at 3 dpf were exposed to 2.5-10 μM SchiA with or without 10 μM MPTP for another 4 days, and zebrafish larval co-treated with MPTP and 150 μM L-dopa or 3 μM NOM (Nomifensine) were used as positive controls. After treatment, zebrafish were collected to perform locomotion behavior test using Viewpoint Zebrabox system and total distances travelled in 10 min were calculated. […]

[2] = 60 μM 12 h, then 2 mM MPP+ 36 h

Compound: COc1cc2c(c(OC)c1OC)-c1c(cc3c(c1OC)OCO3)C[C@H](C)[C@](C)(O)[C@H]2OC(=O)c1ccccc1 [SchiA, Schisantherin A]
- neuroprotective effect on TH-positive neurons ([1]; 30 mg/kg): did not exert statistical significant neuroprotective effect
- neuroprotective effect on TH-positive neurons ([1]; 100 mg/kg): did not exert statistical significant neuroprotective effect
- TH-positive neurons in SNpc ([1]; 300 mg/kg/day i.g. 14 days, then MPTP 30 mg/kg i.p. 5 days): 82±12 cells/section
- MPP+-induced down-regulation of Bcl-2 expression (Bax and Bcl-2; [2]): could inhibit the down-regulation of Bcl-2 expression
- MPP+-induced increase of the Bax/Bcl-2 ratio (Bax and Bcl-2; [2]): effectively prevented
- Bax protein expression (Bax and Bcl-2; 60 μM, compared with control group): did not changed significantly
- Bcl-2 expression, compound alone (Bax and Bcl-2; 60 μM, without MPP+): increase the expression of Bcl-2
- MPTP-induced reduction of total distance of movement (zebrafish larvae): inhibited MPTP-induced reduction of total distance of movement in zebrafish in a dose dependent manner
